Laboratory results: ChEMBL document CHEMBL1124673, “A multisubstrate adduct inhibitor of a purine biosynthetic enzyme with a picomolar dissociation constant” (J Med Chem, 1989)

Tests used:
[1] = target: T1, Trifunctional purine biosynthetic protein adenosine-3 (Mus musculus, UniProt Q64737); experiment: Thermodynamic dissociation constant (KD) was measured upon binding to GAR TFase in mice
T1 sequence (Q64737 whole entry): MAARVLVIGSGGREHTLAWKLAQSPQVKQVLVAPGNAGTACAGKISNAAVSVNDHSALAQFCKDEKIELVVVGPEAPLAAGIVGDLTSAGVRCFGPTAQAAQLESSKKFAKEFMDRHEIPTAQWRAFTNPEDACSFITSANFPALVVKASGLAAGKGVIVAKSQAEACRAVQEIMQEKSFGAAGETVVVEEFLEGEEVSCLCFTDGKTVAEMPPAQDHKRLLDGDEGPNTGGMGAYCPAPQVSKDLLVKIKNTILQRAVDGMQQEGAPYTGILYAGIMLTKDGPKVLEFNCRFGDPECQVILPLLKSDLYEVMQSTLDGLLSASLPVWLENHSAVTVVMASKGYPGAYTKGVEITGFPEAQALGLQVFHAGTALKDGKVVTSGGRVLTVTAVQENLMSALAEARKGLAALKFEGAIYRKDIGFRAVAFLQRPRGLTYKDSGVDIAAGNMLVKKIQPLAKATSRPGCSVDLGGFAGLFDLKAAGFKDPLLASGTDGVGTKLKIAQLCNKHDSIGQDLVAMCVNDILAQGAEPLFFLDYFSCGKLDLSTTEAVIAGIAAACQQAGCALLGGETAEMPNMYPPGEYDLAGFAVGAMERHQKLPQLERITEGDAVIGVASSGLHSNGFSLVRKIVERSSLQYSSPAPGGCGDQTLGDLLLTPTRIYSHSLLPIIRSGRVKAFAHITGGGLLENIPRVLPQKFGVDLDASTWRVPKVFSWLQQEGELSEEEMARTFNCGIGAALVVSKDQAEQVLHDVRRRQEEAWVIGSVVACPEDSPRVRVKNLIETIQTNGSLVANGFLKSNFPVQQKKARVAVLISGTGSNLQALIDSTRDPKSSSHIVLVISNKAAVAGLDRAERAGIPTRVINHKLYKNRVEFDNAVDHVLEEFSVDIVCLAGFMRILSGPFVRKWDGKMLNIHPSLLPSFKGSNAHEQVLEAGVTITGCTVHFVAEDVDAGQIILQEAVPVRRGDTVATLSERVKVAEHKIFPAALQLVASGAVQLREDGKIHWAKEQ

[2] = target: T1, Trifunctional purine biosynthetic protein adenosine-3; experiment: Compound was tested for inhibition constant against GAR TFase in mice

Work on `Nc1nc2ccc(CN(C(=O)CSCC(=O)NC3O[C@H](COP(=O)(O)O)[C@@H](O)[C@H]3O)c3ccc(C(=O)N[C@H](CCC(=O)O)C(=O)O)cc3)cc2c(=O)[nH]1` (some centres not stated) yielded a Kd [1] of 0.25 nM and a Ki [2] of over 100 nM.
